Laboratory results reported in patent US10259810B2, “N-sulfonylated pyrazolo[3,4-b]pyridin-6-carboxamides and method of use” (AbbVie S.à.r.l., priority 2015, dated 2019).

How the values were obtained:
ΔF508-CFTR [1] = target: T1, ΔF508-CFTR (Homo sapiens, UniProt P13569, DEL508-508); assay: CFTR cell surface levels using HRP-tagged ΔF508-CFTR expressing CFBE cells, intrinsic corrector capacity; assay type: cell-based; parameters: % Activation: concentration or dose not given beside the values; conditions: HRP-tagged ΔF508-CFTR expressing CFBE41o- cells, compound alone (intrinsic corrector capacity), 20 hours at 33° C.; for EC50: read-out: EC50
T1 construct: host or cells: CFBE41o-, doxycycline-inducible
Procedure, shortened: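 Surface ΔF508-CFTR was measured as HRP chemiluminescence from an extracellular-loop-4 tag, expressed as percent activity between DMSO and a […] corrector control.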

ΔF508-CFTR [2] = target: T1, ΔF508-CFTR; assay: CFTR cell surface levels using HRP-tagged ΔF508-CFTR expressing CFBE cells, in the presence of a co-corrector; assay type: cell-based; conditions: HRP-tagged ΔF508-CFTR CFBE cells, in the presence of 3 μM co-corrector; for EC50: read-out: EC50
Procedure, shortened: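 Chemiluminescent read-out of surface HRP (15 min, dark) after PBS washes. Activity is normalized as 100×(sample−DMSO)/(3 μM co-corrector alone−DMSO).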

T1 sequence (P13569 with tags, fused parts or gaps DEL508-508): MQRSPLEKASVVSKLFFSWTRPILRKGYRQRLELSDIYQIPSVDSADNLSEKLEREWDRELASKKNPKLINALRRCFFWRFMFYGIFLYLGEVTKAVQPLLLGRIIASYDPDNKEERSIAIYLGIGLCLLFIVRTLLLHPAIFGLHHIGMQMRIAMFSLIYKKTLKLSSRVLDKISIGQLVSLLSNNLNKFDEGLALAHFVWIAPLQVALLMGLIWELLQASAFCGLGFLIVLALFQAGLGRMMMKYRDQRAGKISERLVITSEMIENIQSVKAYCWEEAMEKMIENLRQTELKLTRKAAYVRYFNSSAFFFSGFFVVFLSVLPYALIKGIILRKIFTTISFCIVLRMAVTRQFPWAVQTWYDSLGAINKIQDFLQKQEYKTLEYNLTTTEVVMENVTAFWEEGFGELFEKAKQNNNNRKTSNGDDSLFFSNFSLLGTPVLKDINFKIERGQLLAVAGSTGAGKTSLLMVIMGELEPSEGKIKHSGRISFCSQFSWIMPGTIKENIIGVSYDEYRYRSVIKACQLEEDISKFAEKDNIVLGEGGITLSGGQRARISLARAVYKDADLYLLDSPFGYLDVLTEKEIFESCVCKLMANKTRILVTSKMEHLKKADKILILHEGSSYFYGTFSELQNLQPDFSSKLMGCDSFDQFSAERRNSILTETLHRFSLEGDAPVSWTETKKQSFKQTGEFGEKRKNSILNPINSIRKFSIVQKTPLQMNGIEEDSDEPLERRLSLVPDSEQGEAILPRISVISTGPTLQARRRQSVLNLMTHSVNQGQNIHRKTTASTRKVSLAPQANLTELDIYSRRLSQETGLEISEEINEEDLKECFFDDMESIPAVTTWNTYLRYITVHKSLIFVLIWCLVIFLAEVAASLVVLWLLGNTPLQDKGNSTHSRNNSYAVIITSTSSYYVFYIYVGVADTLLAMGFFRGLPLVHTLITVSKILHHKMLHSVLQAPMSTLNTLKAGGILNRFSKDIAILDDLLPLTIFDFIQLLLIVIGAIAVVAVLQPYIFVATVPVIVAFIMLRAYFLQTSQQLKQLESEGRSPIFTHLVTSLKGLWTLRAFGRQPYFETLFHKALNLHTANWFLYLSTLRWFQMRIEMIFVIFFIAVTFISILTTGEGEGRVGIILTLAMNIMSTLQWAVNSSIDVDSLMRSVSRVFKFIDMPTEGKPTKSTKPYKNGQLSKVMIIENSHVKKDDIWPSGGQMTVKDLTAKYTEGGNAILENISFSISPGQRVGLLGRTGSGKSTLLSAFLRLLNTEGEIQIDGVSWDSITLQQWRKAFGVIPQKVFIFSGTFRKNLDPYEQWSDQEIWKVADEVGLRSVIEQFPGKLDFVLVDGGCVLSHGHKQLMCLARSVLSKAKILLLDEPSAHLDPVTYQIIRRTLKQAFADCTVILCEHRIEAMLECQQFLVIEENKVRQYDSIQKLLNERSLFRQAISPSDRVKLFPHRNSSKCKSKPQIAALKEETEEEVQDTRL

`Cc1nn(-c2ccc(F)cc2F)c2nc(C(=O)NS(C)(=O)=O)cc(-c3ccc(N4CCOCC4)nc3)c12` [Compound 60, 1-(2,4-difluorophenyl)-N-(methanesulfonyl)-3-methyl-4-[6-(morpholin-4-yl)pyridin-3-yl]-1H-pyrazolo[3,4-b]pyridine-6-carboxamide] was tested, and the “% Activation” value (ΔF508-CFTR [1]) was 160.43%, the EC50 (ΔF508-CFTR [1]) was 0.394 µM and the “% Activation” value (ΔF508-CFTR [2]) was 323.63%. The EC50 (ΔF508-CFTR [2]) was 0.351 µM.

For `C[C@H]1CN(c2cc(C(=O)NS(=O)(=O)N(C)C)nc3c2c(C2CCC2)nn3C2CCCCC2)CCN1Cc1ccccc1` [Compound 581, 4-[(3S)-4-benzyl-3-methylpiperazin-1-yl]-3-cyclobutyl-1-cyclohexyl-N-(dimethylsulfamoyl)-1H-pyrazolo[3,4-b]pyridine-6-carboxamide], the “% Activation” value (ΔF508-CFTR [1]) was 33.38%, the EC50 (ΔF508-CFTR [1]) was 0.37 µM and the “% Activation” value (ΔF508-CFTR [2]) was 191.3%. It also gave an EC50 (ΔF508-CFTR [2]) of 0.761 µM.

With `Cc1cc(-n2nc(C3CCC3)c3c(N4CCC(N5CCOCC5)CC4)cc(C(=O)NS(C)(=O)=O)nc32)ccc1F` [Compound 514, 3-cyclobutyl-1-(4-fluoro-3-methylphenyl)-N-(methanesulfonyl)-4-[4-(morpholin-4-yl)piperidin-1-yl]-1H-pyrazolo[3,4-b]pyridine-6-carboxamide] the “% Activation” value (ΔF508-CFTR [1]) was 301.4%, the EC50 (ΔF508-CFTR [1]) was 0.15 µM and the “% Activation” value (ΔF508-CFTR [2]) was 540.3%. For the same compound, the EC50 (ΔF508-CFTR [2]) was 0.0971 µM.

For `CCS(=O)(=O)NC(=O)c1cc(-c2ccc(N3CCOCC3)nc2)c2c(C(C)C)nn(-c3ccccc3)c2n1` [Compound 35, N-(ethanesulfonyl)-4-[6-(morpholin-4-yl)pyridin-3-yl]-1-phenyl-3-(propan-2-yl)-1H-pyrazolo[3,4-b]pyridine-6-carboxamide], the “% Activation” value (ΔF508-CFTR [1]) was 265.23%, the EC50 (ΔF508-CFTR [1]) was 0.542 µM and the “% Activation” value (ΔF508-CFTR [2]) was 509.7%. It also gave an EC50 (ΔF508-CFTR [2]) of 0.348 µM.

With `CN(C)S(=O)(=O)NC(=O)c1cc(N2CCC(N3CCOCC3)CC2)c2c(C3CCC3)nn(-c3cccc(C(F)(F)F)c3)c2n1` [Compound 513, 3-cyclobutyl-N-(dimethylsulfamoyl)-4-[4-(morpholin-4-yl)piperidin-1-yl]-1-[3-(trifluoromethyl)phenyl]-1H-pyrazolo[3,4-b]pyridine-6-carboxamide] the “% Activation” value (ΔF508-CFTR [1]) was 278.5%, the EC50 (ΔF508-CFTR [1]) was 0.101 µM and the “% Activation” value (ΔF508-CFTR [2]) was 476.3%. The EC50 (ΔF508-CFTR [2]) was 0.0667 µM.

`CN(C)S(=O)(=O)NC(=O)c1cc(N2CCC(CCN3CCOCC3)CC2)c2c(C3CCC3)nn(C3CCCCC3)c2n1` [Compound 425, 3-cyclobutyl-1-cyclohexyl-N-(dimethylsulfamoyl)-4-{4-[2-(morpholin-4-yl)ethyl]piperidin-1-yl}-1H-pyrazolo[3,4-b]pyridine-6-carboxamide] was tested, and the “% Activation” value (ΔF508-CFTR [1]) was 280.2%, the EC50 (ΔF508-CFTR [1]) was 0.277 µM and the “% Activation” value (ΔF508-CFTR [2]) was 462.85%. It also gave an EC50 (ΔF508-CFTR [2]) of 0.166 µM.

For `CN(C)S(=O)(=O)NC(=O)c1cc(N2CCC(N3CCC(C(F)(F)F)C3)CC2)c2c(C3CCC3)nn(-c3ccc(F)cc3)c2n1` (stereo not drawn) [Compound 560, 3-cyclobutyl-N-(dimethylsulfamoyl)-1-(4-fluorophenyl)-4-{4-[3-(trifluoromethyl)pyrrolidin-1-yl]piperidin-1-yl}-1H-pyrazolo[3,4-b]pyridine-6-carboxamide], the “% Activation” value (ΔF508-CFTR [1]) was 260.4%, the EC50 (ΔF508-CFTR [1]) was 0.0963 µM and the “% Activation” value (ΔF508-CFTR [2]) was 544.45%. The EC50 (ΔF508-CFTR [2]) was 0.0661 µM.

In the case of `CS(=O)(=O)NC(=O)c1cc(N2CCC(N3CCN(C4CC4)CC3)CC2)c2c(C3CCC3)nn(-c3ccccc3)c2n1` [Compound 556, 3-cyclobutyl-4-[4-(4-cyclopropylpiperazin-1-yl)piperidin-1-yl]-N-(methanesulfonyl)-1-phenyl-1H-pyrazolo[3,4-b]pyridine-6-carboxamide], the “% Activation” value (ΔF508-CFTR [1]) is reported as 386%, the EC50 (ΔF508-CFTR [1]) is reported as 0.0647 µM and the “% Activation” value (ΔF508-CFTR [2]) is reported as 595.8%. It also gave an EC50 (ΔF508-CFTR [2]) of 0.136 µM.

For `COC1CCCN(c2cc(C(=O)NS(C)(=O)=O)nc3c2c(C(C)C)nn3-c2cccc(C)c2)C1` (stereo not drawn) [Compound 162, N-(methanesulfonyl)-4-(3-methoxypiperidin-1-yl)-1-(3-methylphenyl)-3-(propan-2-yl)-1H-pyrazolo[3,4-b]pyridine-6-carboxamide], the “% Activation” value (ΔF508-CFTR [1]) was 169%, the EC50 (ΔF508-CFTR [1]) was 0.445 µM and the “% Activation” value (ΔF508-CFTR [2]) was 331.53%. The EC50 (ΔF508-CFTR [2]) was 0.304 µM.
